Laboratory results taken from ChEMBL document CHEMBL1151525, “Thromboxane receptor antagonism combined with thromboxane synthase inhibition. 7. pyridinylalkyl-substituted arylsulfonylamino arylalkanoic acids” (Bioorg Med Chem Lett, 1992).

Assays:
[1] = organism: Homo sapiens; assay: Inhibitory concentration against U 46619 induced aggregation of human washed platelets(WP); format: functional
[2] = target: T1, Thromboxane-A synthase (Homo sapiens, UniProt P24557); assay: Inhibitory concentration against thromboxane synthase enzyme from human microsomal platelet preparation
T1 sequence (P24557 whole entry): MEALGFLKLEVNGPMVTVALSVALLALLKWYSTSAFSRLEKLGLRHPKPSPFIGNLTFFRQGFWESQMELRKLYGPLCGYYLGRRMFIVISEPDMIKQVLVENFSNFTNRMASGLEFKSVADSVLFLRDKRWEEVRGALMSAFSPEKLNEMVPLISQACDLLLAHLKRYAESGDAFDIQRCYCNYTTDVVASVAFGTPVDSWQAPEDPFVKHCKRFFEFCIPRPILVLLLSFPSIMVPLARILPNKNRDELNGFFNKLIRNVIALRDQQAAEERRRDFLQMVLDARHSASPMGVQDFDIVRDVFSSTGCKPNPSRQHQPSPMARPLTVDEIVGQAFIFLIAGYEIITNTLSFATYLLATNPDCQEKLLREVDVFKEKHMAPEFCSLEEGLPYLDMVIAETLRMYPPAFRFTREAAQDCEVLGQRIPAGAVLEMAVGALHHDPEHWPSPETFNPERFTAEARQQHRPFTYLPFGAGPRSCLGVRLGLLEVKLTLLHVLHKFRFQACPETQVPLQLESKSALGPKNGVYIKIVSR

[3] = organism: Homo sapiens; assay: Inhibitory concentration against U 46619 induced aggregation of human platelet rich plasma(PRP); format: functional
[4] = test system: Cavia porcellus; assay: Ratio of EC50 for drug treated animals over that of control was determined for U-46,619 induced ex-vivo platelet aggregation 1 hr post dosing of 10 mg/kg orally; format: functional; conditions: route oral

Compound	IC50 [1] [nM]	IC50 [2] [nM]	IC50 [3] [nM]	Concentration ratio [4]
O=C(O)CCc1ccc(CCCNS(=O)(=O)c2ccc(Cl)cc2)cc1CCc1cccnc1	230	26		
O=C(O)Cc1cc(CCCNS(=O)(=O)c2ccc(Cl)cc2)cc(CCc2cccnc2)c1	1130	7	10700	
O=C(O)CCc1ccc(CNS(=O)(=O)c2ccc(Cl)cc2)c(CCc2cccnc2)c1	380	43		

The next compounds have a lower IC50 [1] than those just listed; values first:

IC50 [1] [nM]	IC50 [2] [nM]	IC50 [3] [nM]	Compound	Concentration ratio [4]
15	15	300	O=C(O)CCc1cc(CCNS(=O)(=O)c2ccc(Cl)cc2)ccc1CCc1cccnc1	52
3	9	170	COC(=O)CCc1cc(CCNS(=O)(=O)c2ccc(Cl)cc2)cc(CCc2cccnc2)c1	>100
